In patent US9260504B2, “N- and C-terminal substituted antagonistic analogs of GH-RH” (University of Miami, priority 2008, dated 2016):
Marks after values point to notes of the source that are not given here.

Legend:
Type in all cases: in vivo
[1] = test system: MDA-MB-231 human estrogen independent breast cancer; test: MDA-MB-231 human estrogen independent breast cancer xenografts in nude mice; conditions: 5 μg/day s.c., 28 days
Description: Female nude mice were xenografted s.c. with MDA-MB-231 tumor tissue from donor animals. When tumors had grown to a mean volume of approximately 50 mm^3, the mice were randomly assigned into 2 experimental groups with 10 animals in each group and received single daily injections for 28 days as follows: 1. Control (vehicle solution); 2. Peptide 1109 (5 μg/day s.c.). Tumor volumes were measured once a week. The experiment was ended on day 28 by sacrificing the mice under Isoflurane anesthesia. Resulting tumors were cleaned, weighed, and snap-frozen until further analyses. Statistical analyses of the measurement results were done by two-tailed t-test, p<0.05 being considered significant.

[2] = test system: PC-3 human hormone-independent prostate cancer; test: PC-3 human prostate cancer xenografts in nude mice, Experiment 1; conditions: 10 μg/day s.c., daily for 35 days; means±S.E.
Description: (§1) Male nude mice were implanted s.c. with 3 mm^3 pieces of PC-3 human hormone-independent prostate cancer tissue on both flanks. When tumors reached a volume of approx. 50 mm^3, the mice were divided into 4 experimental groups with 8 to 10 animals in each group and received single daily injections for 35 days as follows: 1. Control (vehicle solution); 2. JMR-132 (10 μg/day s.c.); 3. Peptide 1109 (10 μg/day s.c.); 4. Peptide 11111 (10 μg/day s.c.); Tumor volumes were measured once a week. The experiment was ended on day 35 by sacrificing the mice under Isoflurane anesthesia. Resulting tumors were cleaned, weighed, and snap-frozen until further analyses. Statistical analyses of the measurement results were done by two-tailed t-test, p<0.05 being considered significant. Data are presented as the means±S.E.

[3] = test system: NCI-N87 human gastric cancer; test: NCI-N87 human gastric cancer xenografts in nude mice; conditions: 10 μg/day s.c.
Description: NCI-N87 cancers were transplanted s.c. into both flank areas of 30 female nude mice. The mice were randomly assigned into 4 experimental groups with 6 to 9 animals in each group and received single daily injections for 77 days as follows: 1. Control (vehicle solution); 2. JMR-132 (10 μg/day s.c.); 3. Peptide 1109 (10 μg/day s.c.); 4. Peptide 11479 (10 μg/day s.c.). Tumor volumes were measured once a week. The experiment was ended on day 77 by sacrificing the mice under Isoflurane anesthesia. Resulting tumors were cleaned, weighed, and snap-frozen until further analyses. Statistical analyses of the measurement results were done by two-tailed t-test, p<0.05 being considered significant. Data are presented as the means±S.E.

[4] = test system: PC-3 human hormone-independent prostate cancer; test: PC-3 human prostate cancer xenografts in nude mice, Experiment 2
Description: as §1
Experiment 2 was similar to Experiment 1. Experiment 2 was started when PC-3 tumors had grown to approximately 50 mm^3 in volume. At this time, the animals were divided into 5 experimental groups with 8 animals in each group, and received single daily injections for 14 days as follows: 1. Control (vehicle solution); 2. JMR-132 (10 μg/day s.c.); 3. Peptide 1109 (5 μg/day s.c.); 4. Peptide 11109 (5 μg/day s.c.); 5. Peptide 11109 (2 μg/day s.c.). Further details of Experiment 2 are the same as for Experiment 1

[5] = test system: H-460 human non-small cell lung cancer; test: H-460 human non-SCLC xenografts in nude mice, Experiment 1; conditions: 10 μg/day s.c., 28 days; means±S.E.
Description: Male nude mice were implanted s.c. with 3 mm^3 pieces of H-460 human non-SCLC tumor tissue on both flanks. When tumors had grown to a mean volume of approximately 90 mm^3, the mice were randomly assigned into 4 experimental groups with 10 animals in each group and received single daily injections for 28 days as follows: 1. Control (vehicle solution); 2. JMR-132 (10 μg/day s.c.); 3. Peptide 1109 (10 μg/day s.c.); 4. Peptide 11111 (10 μg/day s.c.). Tumor volumes were measured once a week. The experiment was ended on day 28 by sacrificing the mice under Isoflurane anesthesia. Resulting tumors were cleaned, weighed, and snap-frozen until further analyses. Statistical analyses of the measurement results were done by two-tailed t-test, p<0.05 being considered significant. Data are presented as the means±S.E.

[6] = test system: SK-Hep-1 human hepatocellular cancer; test: SK-Hep-1 human hepatocellular cancer xenografts in nude mice; conditions: for Tumor volume (mm^3) on day 135: means±S.E.; for Tumor weights (mg): tumors removed at autopsy
Description: SK-Hep-1 cancers were transplanted s.c. into both flank areas of 66 female nude mice, and allowed to grow for 47 days before starting the treatment with GH-RH antagonists. The mice were randomly assigned into 4 experimental groups with 8 animals in each group and received single daily injections for 135 days as follows: 1. Control (vehicle solution); 2. JMR-132 (10 μg/day s.c.); 3. Peptide 1109 (5 μg/day s.c.); 4. Peptide 1109 (10 μg/day s.c.). Tumor volumes were measured once a week. The experiment was ended on day 135 by sacrificing the mice under Isoflurane anesthesia. Resulting tumors were cleaned, weighed, and snap-frozen until further analyses. Statistical analyses of the measurement results were done by two-tailed t-test, p<0.05 being considered significant. Data are presented as the means±S.E.

In the case of “[PhAc^0-Tyr^1, D-Arg^2, Cpa^6, Ala^8, Har^9, Tyr(Me)^10, His^11, Abu^15, Glu^17, His^20, Nle^27, D-Arg^28, Har^29]hGH-RH(1-29)NH2 [Peptide 1109]”, the “Inhibition of the growth of MDA-MB-231 human breast cancers” value [1] is reported as “about 75%”, the “Tumor growth after 5 weeks (%)” value [2] is reported as 1502 ± 405% and the “Number of regressing tumors” value ([3]; 77 days) is reported as 6. The “Tumor growth after 77 days (%)” value ([3]; 77 days, means±S.E.) was 225 ± 59 %, the “Tumor weights” value ([3]; day 77, means±S.E.) was 170 ± 52 mg and the “Tumor doubling time” value ([3]; calculated without the regressing tumors) was 93.6 ± 30.7 days. The “Tumor growth after 2 weeks (%)” value ([4]; 5 μg/day s.c., 14 days) was 311%, the “Inhibition of PC-3 tumor growth compared with reference peptide JMR-132” value ([4]; Peptide 1109 5 μg/day, Peptide 11109 5 and 2 μg/day, JMR-132 10 μg/day, 14 days) was “inhibited the growth of PC-3 tumors more potently than reference peptide JMR-132” and the “Inhibition (%)” value ([4]; tumor growth after 2 weeks, 5 μg/day s.c.) was 56.58%. For the same substance, the “Tumor growth after 4 weeks (%)” value [5] was 1042 ± 181%, the “Tumors with total regression” value ([6]; 5 μg/day s.c., 135 days) was 5 and the “Tumor volume (mm^3) on day 135” value ([6]; 5 μg/day s.c., 135 days) was 271 ± 98 mm^3. For the same substance, the “Tumor weights (mg)” value ([6]; 5 μg/day s.c.) was 565 ± 115 (6) mg, the “Inhibition of SK-Hep-1 hepatic cancer growth compared with reference peptide JMR-132” value ([6]; 5 μg/day vs JMR-132 10 μg/day, 135 days) was “more potently inhibited the growth of SK-Hep-1 hepatic cancers than the reference peptide JMR-132” and the “Tumors with total regression” value ([6]; 10 μg/day s.c., 135 days) was 7. For the same substance, the “Tumor volume (mm^3) on day 135” value ([6]; 10 μg/day s.c., 135 days) was 200 ± 123* mm^3 and the “Tumor weights (mg)” value ([6]; 10 μg/day s.c.) was 605 ± 281 (4) mg.
